The text below walks through data of ChEMBL document CHEMBL1143986, “Probing lipid- and drug-binding domains with fluorescent dyes” (Bioorg Med Chem, 2008).

The term solubility denotes the dissolved amount per volume that the medium holds. Low values mean a poorly soluble substance, high ones a readily soluble substance. Usually EC50 stands for the concentration needed to bring the measured effect to its halfway point. Lower therefore signals a more potent agent.

Structures are written as SMILES.

Data set [1] is described as follows: Aqueous solubility of the compound. It is filed as physicochemical.
The target in data set [2] is Albumin (Bos taurus, UniProt P02769). Briefly: Binding affinity to bovine serum albumin.
Chain of Albumin (P02769 whole entry): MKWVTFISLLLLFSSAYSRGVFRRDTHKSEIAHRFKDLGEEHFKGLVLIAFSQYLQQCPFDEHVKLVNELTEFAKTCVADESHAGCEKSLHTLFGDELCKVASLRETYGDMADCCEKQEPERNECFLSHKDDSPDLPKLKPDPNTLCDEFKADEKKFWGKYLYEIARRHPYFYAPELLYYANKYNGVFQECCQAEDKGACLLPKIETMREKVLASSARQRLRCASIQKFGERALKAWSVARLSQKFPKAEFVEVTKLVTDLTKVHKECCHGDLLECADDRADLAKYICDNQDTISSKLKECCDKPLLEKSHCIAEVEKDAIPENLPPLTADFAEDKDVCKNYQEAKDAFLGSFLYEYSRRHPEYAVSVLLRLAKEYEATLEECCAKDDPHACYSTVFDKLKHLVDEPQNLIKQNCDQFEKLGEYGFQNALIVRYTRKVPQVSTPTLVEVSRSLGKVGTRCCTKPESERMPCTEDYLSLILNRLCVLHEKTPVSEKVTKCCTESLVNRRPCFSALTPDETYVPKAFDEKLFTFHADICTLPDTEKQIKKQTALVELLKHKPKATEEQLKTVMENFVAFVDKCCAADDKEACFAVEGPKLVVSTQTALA

In the case of `CCN(CC)c1ccc2nc3c4ccc(OCCCC(=O)O)cc4c(=O)cc-3oc2c1`, the solubility in data set [1] is > 100 µM.
On the same count and under the same terms, the same measure for `CCN(CC)c1ccc2nc3c4ccc(OCCCC(=O)O)cc4c(=O)c(Br)c-3oc2c1`: > 100 µM.
Regarding `CCN(CC)c1ccc2nc3c4cc(OCCCC(=O)O)ccc4c(=O)cc-3oc2c1`, the solubility in data set [1] was > 100 µM. In data set [2], this compound gave an EC50 of 1500 nM.
`CCN(CC)c1ccc2nc3c4cc(OCCCC(=O)O)ccc4c(=O)c(Br)c-3oc2c1`: in data set [1], the solubility is > 100 µM.
